Values quoted from earlier work, collected in patent US8278478B2, “Process for the synthesis of hydrochloride salt of N-fatty acylsubstituted amino acid ethyl esters” (priority 2009, dated 2012).

Details: at 20° C.

- solubility in water: greater than 247 g/kg
SMILES: CCCCCCCCCCCC(=O)N[C@@H](CCCNC(=N)N)C(=O)OCC.Cl [Ethyl lauroyl arginate, ethyl-Nα-lauroyl-L-arginate HCl]
